Patent US8663645B2, “Use of native peptides and their optimized derivatives for vaccination” (Vaxon Biotech, priority 2005, dated 2014)
“And” between values parts separate entries of the source, which are not always exact repeats. Equal values may be shown once. No end group written: not given here.

Columns and labels:
[1] = system: RMAS/HHD cells pulsed with TERT988; assay: Avidity of CTL lines for native TERT988 (51Cr release); format: cell-based, HHD mice; settings: TERT988Y primed spleen cells
Procedure: (§1) HHD mice were injected subcutaneously with 100 μg of nonamer peptides emulsified in incomplete Freund's adjuvant (IFA) in the presence of 150 μg of the I-Ab restricted HBVcore128 T-helper epitope. Spleen cells (5×10^7 cells in 10 ml) from immunized HHD mice were stimulated in vitro with peptide (10 μM) in RPMI1640+10% FCS for five days. The CTL lines were established by weekly re-stimulation in vitro with irradiated spleen cells in the presence of peptide and 50 U/ml IL-2 (Proleukin, Chiron Corp., Emeryville, Calif.).
(§2) Murine RMAS/HHD cells were used as targets for cytotoxicity as described (Tourdot, Scardino et al. 2000). Briefly, 2.5×10^3 51Cr-labeled targets were pulsed with increasing doses (0.00001-10 μM) of peptides at 37° C. for 60 min. Effector cells in 100 μl were then added and incubated at 37° C. for 4 hours. After incubation, 100 μl of supernatant were collected and radioactivity was measured in a gamma counter. The specific lysis was determined as: Lysis=(Experimental Release−Spontaneous Release)/(Maximal Release−Spontaneous Release). CTL avidity is defined as the peptide concentration that gives half the maximal lysis. […] In Vivo Tumor Protection Assay
(§3) HHD mice were immunized with the optimized cryptic TERT988Y peptide. Eleven days later, spleen cells from vaccinated mice were pooled and in vitro serially stimulated with 10 μM of either TERT988Y or the native cryptic TERT988 peptides in the presence of 50 IU/ml of IL2. Stimulations were repeated every week. After the first, third and sixth in vitro stimulation, CTL lines were tested for their avidity for the native TERT988 peptide in a classical ^51Cr release cytotoxicity assay (Table 5).

EL4/HHD tumor cells = assay: In vivo tumor protection assay; parameters: species or system HHD mice; settings: for Survival post-challenge / Survival post-challenge (days): individual mice
Procedure: HHD mice were vaccinated with 100 μg of peptide emulsified in IFA in the presence of 150 μg of the 1 Ab restricted HBVcore128 epitope once and then again two weeks later. One week after the second vaccination they were challenged subcutaneously with 2×10^4 EL4/HHD cells. Survival was recorded every two days.
HHD mice were vaccinated with the optimized cryptic TERT572Y and TERT988Y peptides and fifteen days later boosted with either the same optimized or the corresponding native cryptic peptide. Ten days after the boost, mice were challenged with EL4/HHD tumor cells and monitored for tumor growth and survival. Mice primed and boosted with the gp100154 peptide were used as negative controls (Table 8). 100% of control mice died by day 43 post-challenge.

[2] = system: RMAS/HHD cells pulsed with TERT572; assay: Avidity for TERT572 of CTL after in vivo prime and boost; settings: individual HHD mice, 1st vaccination TERT572Y, 2nd vaccination the labelled peptide
Procedure: as §1, §2
HHD mice were vaccinated with the optimized cryptic TERT572Y peptide described above. Fifteen days later, they were boosted with either the same optimized or the native cryptic TERT572 peptide. […]

[3] = Storage stability of vaccine peptides; format: physicochemical; settings: more than two years of storage at −80° C.
Procedure: The vaccine consisted of optimized TERT572Y (YLFFYRKSV) (SEQ ID NO:2) and native TERT572 (RLFFYRKSV) (SEQ ID NO:1) peptides emulsified in Montanide ISA51 (Seppic Inc, France). The vaccine peptides were synthesized at the Faculty of Pharmacy, University of Patras (Greece) by means of solid-phase Fmoc/Bu chemistry. Quality assurance studies included confirmation of identity, sterility and purity (>95% for both peptides). […] Each peptide was prepared as a lyophilized powder for reconstitution and dilution in sterile water.

[4] = system: patients treated with TERT540; settings: cited from earlier work
[5] = system: RMAS/HHD cells pulsed with MAGE-A248D9; assay: Avidity of CTL lines for native MAGE-A248D9 (51Cr release); format: cell-based, HHD mice; settings: MAGE-A248V9 primed spleen cells
Procedure: as §1, §2
as §3, with “optimized MAGE-A248V9 peptide, corresponding to the” for “optimized”, “MAGE-A248D9 (both described in WO03083124).” for “TERT988Y peptide.”, “100” for “10”, “MAGE-A248V9” for “TERT988Y”, “MAGE-A248D9” for “TERT988”, “6).” for “5).”

[6] = Phase I clinical study: toxicity (NCI Common Toxicity Criteria); format: in vivo, human
Procedure: Patients received a total of six subcutaneous vaccinations administered every 3 weeks. Peptides in 0.5 ml aqueous solution were emulsified with 0.5 ml Montanide ISA51 immediately before being injected. The optimized TERT572Y peptide was used for the first 2 vaccinations and the native TERT572 peptide for the remaining 4 vaccinations. Five dose levels of the peptides were studied; dose levels included 2, 3, 4, 5 and 6 mg of both peptides. Three patients were entered at each dose level. An additional 3 patients were planned to be enrolled at the dose level where a dose-limiting event was observed. Each patient received the same peptide dose for all six vaccinations. No other treatment with possible antitumor activity, i.e., chemotherapy, radiotherapy, hormonal therapy or administration of corticosteroids, was allowed during the course of vaccination.
Before entering the study, all patients were assessed by complete medical history, physical examination, and complete blood cell count with differential, serum chemistry and baseline measurements of relevant tumor markers. Moreover, measurable disease was determined by standard imaging procedures (chest x-ray, ultrasound, computed tomography scans of thorax and abdomen, magnetic resonance imaging (MRI) if indicated, and whole body bone scans). Toxicity during the vaccination protocol was evaluated by repeating the complete blood cell count weekly and by performing medical history, physical examination and serum chemistry every three weeks before each subsequent injection during the vaccination period and every month thereafter during the follow up. Toxicity was assessed and scored using the National Cancer Institute (NCI) Common Toxicity Criteria (Ajani, Welch et al. 1990). Dose-limiting toxicity (DLT) was assessed during the entire vaccination protocol and was defined as the occurrence of any of the following: grade 4 hematologic toxicity; grade 3-4 neutropenia with fever>38.2° C.; grade 3-4 non-hematologic toxicity; and any treatment delay because of toxicity. Dose escalation was discontinued and the DLT dose level was reached if at least 50% of the patients treated at that level develop a DLT. The MTD dose level was defined as the first level below the DLT dose level.

[7] = 1 in vitro stimulation with the labelled peptide (10 μM)
[8] = 3 in vitro stimulations with the labelled peptide
[9] = 6 in vitro stimulations with the labelled peptide
[10] = prime TERT988Y, boost the labelled peptide
[11] = prime TERT572Y, boost the labelled peptide
[12] = 1 in vitro stimulation with the labelled peptide

DLQVNSLQTV (TERT-988) [TERT988]
CTL line avidity [1, 7]: 170 nM | CTL line avidity [1, 8]: 70 nM | CTL line avidity [1, 9]: 3 nM | Survival post-challenge (EL4/HHD tumor cells; [10]): 39 days and 40 days and 41 days | Survival post-challenge (days) (EL4/HHD tumor cells; [10]): 200+ days

KTWGQYWQV [Gp100154, reference compound]
Survival post-challenge (EL4/HHD tumor cells; prime Gp100154, boost the labelled peptide (negative control)): 39 days (2×) and 43 days and 41 days (2×) and 40 days | control mice died by day 43 post-challenge (EL4/HHD tumor cells; primed and boosted with gp100154): 100%

RLFFYRKSV (TERT-572) [TERT572, native cryptic peptide derived from TERT]
CTL avidity [2]: 110 nM and 190 nM and 70 nM | purity or concentration after storage [3]: No decrease in purity or concentration | Survival post-challenge (EL4/HHD tumor cells; [11]): 32 days and 35 days and 40 days | Survival post-challenge (days) (EL4/HHD tumor cells; [11]): 200+ days

TERT540: dominant peptide TERT540 (hTERT:540-548), literature vaccine (ILAKFLHWL; UniProt O14746 540-548, looked up, fragment)
objective clinical response ([4]; 11 patients with renal cancer (Parkhurst, Riley et al. 2004)): none of 11 patients | patients who responded to the vaccine ([4]; TERT540 emulsified in Monatanide (Parkhurst, Riley et al. 2004)): 50%

YLEYRQVPD (MAGE-A-248D9) [MAGE-A248D9]
CTL avidity [5, 12]: 200 nM | CTL avidity [5, 8]: 40 nM | CTL avidity [5, 9]: 0.8 nM

YLEYRQVPV (MAGE-A-248V9) [MAGE-A248V9]
CTL avidity [5, 12]: 400 nM | CTL avidity [5, 8]: 450 nM | CTL avidity [5, 9]: 320 nM

YLFFYRKSV [TERT572Y, YLFFYRKSV]
hematologic, renal, gastrointestinal or hepatic toxicity ([6]; TERT-expressing normal cells and tissues): no significant hematologic, renal, gastrointestinal or hepatic toxicity was observed | MTD dose level ([6]; dose levels 2-6 mg): has not been reached | Dose-limiting toxicity (DLT) ([6]; dose levels 2-6 mg, entire study): No DLT was observed | signs of autoimmunity ([6]; even 24 months after the end of vaccination): none of the patients showed signs of autoimmunity | Toxicity Grade I ([6]; individual patients): no (6×) and Anemia, local skin, fatigue, and anorexia and Thrombo/penia, local skin and Local skin (5×) and thrombocytopenia and Anemia, local skin (3×) and Anemia and Local skin, anemia | Toxicity Grade II ([6]; individual patients): fatigue, nausea and no (16×) and anorexia, fatigue, and nausea and anorexia, fatigue | Toxicity Grade III/IV ([6]; individual patients): no | delayed toxicity ([6]; monthly follow up after completing or discontinuing vaccination): no signs or findings of delayed toxicity were observed | grade 11 anorexia ([6]; of 19 patients): 2 patients | grade 11 fatigue ([6]; of 19 patients): 3 patients | grade 11 nausea ([6]; of 19 patients): 2 patients | grade I anemia ([6]; of 19 patients): 6 patients | grade I anorexia ([6]; of 19 patients): 1 patient | grade I fatigue ([6]; of 19 patients): 1 patient | grade I local skin reaction ([6]; of 19 patients): 11 patients | grade I thrombocytopenia ([6]; of 19 patients): 2 patients | patients who developed grade 11 toxicity ([6]; of 19 patients): Three | patients who developed grade I toxicity ([6]; of 19 patients): Thirteen

YLQVNSLQTV (TERT-988Y1) [TERT988Y]
CTL line avidity [1, 7]: 300 nM | CTL line avidity [1, 8]: 500 nM | CTL line avidity [1, 9]: 600 nM | Survival post-challenge (EL4/HHD tumor cells; [10]): 40 days (3×) and 43 days (2×) | Survival post-challenge (days) (EL4/HHD tumor cells; [10]): 200+ days
